Measured values: patent US20050101595A1, “N-containing cycloalkyl-substituted amino-thiazole derivatives and pharmaceutical compositions for inhibiting cell proliferation and methods for their use” (PFIZER INC., priority 2003, published 2005)
Structures can show the parent of a compound that is named as a salt. Where two headings read alike, the source gives them in different places.

What was measured:
HCT-116 cell line = test: Inhibition of cell growth, tetrazolium salt (MTT) assay; type: cell-based; settings: for IC50: Homo sapiens, HCT-116, 120 h, MTT, three to five days, read-out: HCT-116 IC50; for HCT-116 % Inhibition at 0.25 μM: 0.25 μM compound
Procedure, shortened: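 Cells in McCoy's 5A medium were left 4 h, then given graded compound concentrations in 0.5% (v/v) DMSO and incubated three to five days at 37° C (5% CO2). MTT was added to 0.2 mg/mL for 4 h more; DMSO-solubilized formazan was read at 540 nm against 0.5% DMSO-only controls.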

CDK2/Cyclin A = CDK2/Cyclin A (Homo sapiens, UniProt P24941); test: Inhibition of CDK2/Cyclin A Retinoblastoma Kinase Activity; type: biochemical; settings: for Ki: apparent Ki, CDK2/proteolyzed cyclin A, Rb fragment substrate, 25 μM ATP; for CDK2 % Inhibition At 0.03 μM: Table 2
Procedure, shortened: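 Human CDK2, baculovirus/insect-cell expressed, complexed with proteolyzed cyclin A (10 nM or 19 nM CDK2) phosphorylates an Rb fragment with 25 μM [32P/33P]ATP at pH 7.4, 30° C, for 60 or 75 minutes under initial-rate conditions. Filter-captured radioactivity is read by phosphorimager; apparent Ki from competitive-inhibition fits.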

[1] = biological target: human CDK4 and genetically truncated (1-264) cyclin D3 (Homo sapiens, UniProt P11802); test: Inhibition of CDK4/Cyclin D Retinoblastoma Kinase Activity; type: biochemical; settings: for Ki: apparent Ki, CDK4/truncated cyclin D3, Rb fragment substrate, 25 μM ATP
Procedure, shortened: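 Read-out: 32P/33P incorporation into Rb fragment (386-928) captured on nitrocellulose, phosphorimager. Enzyme 5 nM CDK4/cyclin D3(1-264) from insect cells; ATP 25 μM, pH 7.4, 30 °C, 20 min (60 min for tight binders). Ki from competitive fits.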

[2] = 0.1 μM compound, HCT-116, Table 4

Sequence of human CDK4 and genetically truncated (1-264) cyclin D3 (P11802 whole entry, the tested form may be a part): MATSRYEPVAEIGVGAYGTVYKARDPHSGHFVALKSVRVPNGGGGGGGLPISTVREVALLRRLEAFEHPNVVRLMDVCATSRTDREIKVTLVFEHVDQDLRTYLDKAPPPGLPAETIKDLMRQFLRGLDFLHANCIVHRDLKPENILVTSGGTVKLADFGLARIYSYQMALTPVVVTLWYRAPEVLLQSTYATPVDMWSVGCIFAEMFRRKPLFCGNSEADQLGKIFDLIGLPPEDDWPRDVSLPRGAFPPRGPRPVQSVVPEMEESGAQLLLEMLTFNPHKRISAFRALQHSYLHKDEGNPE
Sequence of human CDK4 and genetically truncated (1-264) cyclin D3 (P30281 1-264 partner): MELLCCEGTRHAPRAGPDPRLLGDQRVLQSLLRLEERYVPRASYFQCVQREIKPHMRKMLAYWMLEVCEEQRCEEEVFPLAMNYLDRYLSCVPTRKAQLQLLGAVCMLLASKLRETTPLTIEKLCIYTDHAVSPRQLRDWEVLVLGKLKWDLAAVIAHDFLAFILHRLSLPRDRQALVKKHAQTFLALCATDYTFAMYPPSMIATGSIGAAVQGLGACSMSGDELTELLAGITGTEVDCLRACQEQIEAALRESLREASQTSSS

Nc1nc(NC2CCN(C(=O)c3ccc(Br)cc3)CC2)sc1C(=O)c1c(F)cccc1F [Example D11]
IC50 (HCT-116 cell line; first HCT-116 column (c4)): 720 nM
IC50 (HCT-116 cell line; second HCT-116 column (c5)): 1800 nM
Ki (CDK2/Cyclin A): 81 nM
Ki [1]: 31 nM

Cc1onc(-c2ccccc2Cl)c1C(=O)N1CCC(Nc2nc(N)c(C(=O)c3c(F)cccc3F)s2)CC1 [Example R11]
HCT-116 % Inhibition at 0.1 μM (HCT-116 cell line; HCT-116 cells, at 0.1 μM): 0%
HCT-116 5 Inhibition at 0.25 μM (HCT-116 cell line; HCT-116 cells): 37
CDK2 % Inhibition at 0.03 μM (CDK2/Cyclin A; at 0.03 μM): 4%
CDK4 % Inhibition at 0.03 μM ([1]; at 0.03 μM): 49%

Nc1nc(NC2CCN(C(=O)c3cnc(Cl)c(Cl)c3)CC2)sc1C(=O)c1c(F)cccc1F [Example R30]
HCT-116 % Inhibition at 0.1 μM (HCT-116 cell line; HCT-116 cells, at 0.1 μM): 13%
HCT-116 5 Inhibition at 0.25 μM (HCT-116 cell line; HCT-116 cells): 43
CDK2 % Inhibition at 0.03 μM (CDK2/Cyclin A; at 0.03 μM): 31%
CDK4 % Inhibition at 0.03 μM ([1]; at 0.03 μM): 63%

CN(C(=O)N1CCC(Nc2nc(N)c(C(=O)c3c(F)cccc3F)s2)CC1)c1ccccc1 [Example Q1]
HCT-116 % Inhibition at 0.1 μM (HCT-116 cell line; [2]): 0%
HCT-116 % Inhibition at 0.25 μM (HCT-116 cell line; HCT-116, Table 4): 38%
CDK2 % Inhibition at 0.03 μM (CDK2/Cyclin A; 0.03 μM compound, Table 4): −7%
CDK4 % Inhibition at 0.03 μM ([1]; 0.03 μM compound, Table 4): 31%

Nc1nc(NC2CCN(C(=O)c3c(F)cccc3F)CC2)sc1C(=O)c1c(F)cccc1F [Example R105]
HCT-116 % Inhibition at 0.1 μM (HCT-116 cell line; HCT-116 cells, at 0.1 μM): 0%
HCT-116 5 Inhibition at 0.25 μM (HCT-116 cell line; HCT-116 cells): 44
CDK2 % Inhibition at 0.03 μM (CDK2/Cyclin A; at 0.03 μM): 8%
CDK4 % Inhibition at 0.03 μM ([1]; at 0.03 μM): 9%

Nc1nc(NC2CCN(S(=O)(=O)c3ccc(Sc4ccccn4)nc3)CC2)sc1C(=O)c1c(F)cccc1F [Example L2, 1-(4-Amino-2-{1-[6-(pyridin-2-ylsulfanyl)-pyridine-3-sulfonyl]-piperidin-4-ylamino}-thiazol-5-yl)-1-(2,6-difluoro-phenyl)-methanone Dihydrochloride.]
IC50 (HCT-116 cell line; first HCT-116 column (c4)): > 500 nM
IC50 (HCT-116 cell line; second HCT-116 column (c5)): > 500 nM
Ki (CDK2/Cyclin A): 1.5 nM
Ki [1]: 2.7 nM

COC(=O)[C@H](COC(C)(C)C)NC(=O)N1CCC(Nc2nc(N)c(C(=O)c3c(F)cccc3F)s2)CC1 [Example O79]
HCT-116 % Inhibition at 0.25 μM (HCT-116 cell line; HCT-116, Table 2): 49%
CDK2 % Inhibition At 0.03 μM (CDK2/Cyclin A; 0.03 μM compound): 32%
CDK4 % Inhibition at 0.03 μM ([1]; 0.03 μM compound, Table 2): 8%

CC(C)S(=O)(=O)c1csc(C(=O)N2CCC(Nc3nc(N)c(C(=O)c4c(F)cccc4F)s3)CC2)c1 [Example R63]
HCT-116 % Inhibition at 0.1 μM (HCT-116 cell line; HCT-116 cells, at 0.1 μM): 0%
HCT-116 5 Inhibition at 0.25 μM (HCT-116 cell line; HCT-116 cells): 38
CDK2 % Inhibition at 0.03 μM (CDK2/Cyclin A; at 0.03 μM): 11%
CDK4 % Inhibition at 0.03 μM ([1]; at 0.03 μM): 12%

CN(C)CCCOc1ccc(S(=O)(=O)N2CCC(Nc3nc(N)c(C(=O)c4c(F)cccc4F)s3)CC2)cn1 [Example H15, 1-(4-Amino-2-{1-[6-(3-dimethylamino-propoxy)-pyridine-3-sulfonyl]-piperidin-4-ylamino}-thiazol-5-yl)-1-(2,6-difluoro-phenyl)-methanone Hydrochloride]
IC50 (HCT-116 cell line; first HCT-116 column (c4)): 71 nM
IC50 (HCT-116 cell line; second HCT-116 column (c5)): 500 nM
Ki (CDK2/Cyclin A): 0.64 nM
Ki [1]: 0.34 nM

COc1ccc(NC(=O)N2CCC(Nc3nc(N)c(C(=O)c4c(F)cccc4F)s3)CC2)cc1 [Example O21]
HCT-116 % Inhibition at 0.25 μM (HCT-116 cell line; HCT-116, Table 2, 0.25 µM): 21%
CDK2 % Inhibition At 0.03 μM (CDK2/Cyclin A; 0.03 μM compound, 0.03 µM): 37%
CDK4 % Inhibition at 0.03 μM ([1]; 0.03 μM compound, Table 2, 0.03 µM): 13%

Nc1nc(NC2CCN(C(=O)c3cccc(F)c3)CC2)sc1C(=O)c1c(F)cccc1F [Example R130]
HCT-116 % Inhibition at 0.1 μM (HCT-116 cell line; HCT-116 cells, at 0.1 μM): 0%
HCT-116 5 Inhibition at 0.25 μM (HCT-116 cell line; HCT-116 cells): 20
CDK2 % Inhibition at 0.03 μM (CDK2/Cyclin A; at 0.03 μM): 59%
CDK4 % Inhibition at 0.03 μM ([1]; at 0.03 μM): 77%

CC(C)NCCOc1ccc(S(=O)(=O)N2CCC(Nc3nc(N)c(C(=O)c4c(F)cccc4F)s3)CC2)cn1 [Example H19, (4-Amino-2-{1-[6-(2-isopropylamino-ethoxy)-pyddine-3-sulfonyl]-piperidin-4-ylamino}-thiazol-5-yl)-(2,6-difluoro-phenyl)-methanone Hydrochloride Salt]
IC50 (HCT-116 cell line; first HCT-116 column (c4)): 180 nM
IC50 (HCT-116 cell line; second HCT-116 column (c5)): 2500 nM
Ki (CDK2/Cyclin A): 1.5 nM
Ki [1]: 0.52 nM

COc1cccc(C(=O)N2CCC(Nc3nc(N)c(C(=O)c4c(F)cccc4F)s3)CC2)c1OC [Example R115]
HCT-116 % Inhibition at 0.1 μM (HCT-116 cell line; HCT-116 cells, at 0.1 μM): 0%
HCT-116 5 Inhibition at 0.25 μM (HCT-116 cell line; HCT-116 cells): 49
CDK2 % Inhibition at 0.03 μM (CDK2/Cyclin A; at 0.03 μM): 42%
CDK4 % Inhibition at 0.03 μM ([1]; at 0.03 μM): 58%

Nc1nc(NC2CCN(C(=O)c3cccnc3)CC2)sc1C(=O)c1c(F)cccc1F [Example Q80]
HCT-116 % Inhibition at 0.1 μM (HCT-116 cell line; [2]): 10%
HCT-116 % Inhibition at 0.25 μM (HCT-116 cell line; HCT-116, Table 4): 27%
CDK2 % Inhibition at 0.03 μM (CDK2/Cyclin A; 0.03 μM compound, Table 4): 20%
CDK4 % Inhibition at 0.03 μM ([1]; 0.03 μM compound, Table 4): 50%
